“And” between values parts separate entries of the source, which are not always exact repeats. Equal entries are not always repeated. Structures can show the parent of a compound that is named as a salt.

Format in all cases: in vivo
Assay [1] concerns Echinochloa oryzoides (Ard.) Fritsch. As to the kind of experiment: Preemergence weed control under flooded paddy conditions, ECHORC (Watergrass (Calif.)). For herbicidal effect rating, ECHORC: meaning of each grade not given here. Conditions: for ECHORC: herbicidal effect rating 0-9, three to four weeks after treatment.
A further assay deals with Cyperus iria. As to the kind of experiment: Preemergence weed control under flooded paddy conditions, CYPIR (Rice Flatsedge). For herbicidal effect rating, CYPIR: meaning of each grade not given here. Conditions: flooded paddy; for CYPIR: herbicidal effect rating 0-9, three to four weeks after treatment; for herbicidal effect rating, CYPIR / CYPIR herbicidal rating: rated three to four weeks after treatment.
For assay [2], the system named is Cyperus serotinus, Rottb. As to the kind of experiment: Preemergence weed control under flooded paddy conditions, CYPSE (Flatsedge). For herbicidal effect rating, CYPSE: meaning of each grade not given here. As to conditions: for CYPSE: herbicidal effect rating 0-9, three to four weeks after treatment; for herbicidal effect rating, CYPSE / CYPSE herbicidal rating: rated three to four weeks after treatment.
For assay [3], the system named is Monochoria vaginalis, Presl. Put plainly: Preemergence weed control under flooded paddy conditions, MOOVA (Monochoria). For herbicidal effect rating, MOOVA: meaning of each grade not given here. Conditions: for MOOVA: preemergence weeds, herbicidal effect rating 0-9, three to four weeks after treatment; for MOOVA / MOOVA herbicidal rating: flooded paddy; for MOOVA herbicidal rating: preemergence, rated three to four weeks after treatment.

Another assay deals with Sagittaria pygmaea, L. As to the kind of experiment: Preemergence weed control under flooded paddy conditions, SAGPY (Arrowhead (Pygmaea)). For herbicidal effect rating, SAGPY: meaning of each grade not given here. Conditions: for SAGPY: herbicidal effect rating 0-9, three to four weeks after treatment.
Setting [4] is: 0.0320 kg/ha, preemergence weeds, flooded paddy.
[5] abbreviates: 0.0620 kg/ha, preemergence weeds, flooded paddy.
Where [6] appears, read: 0.1250 kg/ha, preemergence weeds, flooded paddy.
The mark [7] stands for this setting: 0.2500 kg/ha, preemergence weeds, flooded paddy.
Setting [8] is: 0.0320 kg/ha, preemergence weeds.
[9] abbreviates: 0.0620 kg/ha, preemergence weeds.
Setting [10] is: 0.1250 kg/ha, preemergence weeds.
[11] abbreviates: 0.2500 kg/ha, preemergence weeds.
Where [12] appears, read: Rate 0.0320 kg/ha, preemergence weeds, flooded paddy, rated three to four weeks after treatment.
Where [13] appears, read: Rate 0.0620 kg/ha, preemergence weeds, flooded paddy, rated three to four weeks after treatment.
The mark [14] stands for this setting: Rate 0.1250 kg/ha, preemergence weeds, flooded paddy, rated three to four weeks after treatment.
[15] abbreviates: Rate 0.2500 kg/ha, preemergence weeds, flooded paddy, rated three to four weeks after treatment.
[16] abbreviates: Rate 0.0320 kg/ha, preemergence weeds.
Setting [17] is: Rate 0.0620 kg/ha, preemergence weeds.
[18] abbreviates: Rate 0.1250 kg/ha, preemergence weeds.
[19] abbreviates: Rate 0.2500 kg/ha, preemergence weeds.
[20] abbreviates: 0.0320 kg/ha, preemergence, flooded paddy, rated three to four weeks after treatment.
Setting [21] is: 0.0620 kg/ha, preemergence, flooded paddy, rated three to four weeks after treatment.
Where [22] appears, read: 0.1250 kg/ha, preemergence, flooded paddy, rated three to four weeks after treatment.
[23] abbreviates: 0.2500 kg/ha, preemergence, flooded paddy, rated three to four weeks after treatment.
[24] abbreviates: Rate 0.0320 kg/ha, preemergence, flooded paddy, rated three to four weeks after treatment.
Where [25] appears, read: Rate 0.0620 kg/ha, preemergence, flooded paddy, rated three to four weeks after treatment.
Setting [26] is: Rate 0.1250 kg/ha, preemergence, flooded paddy, rated three to four weeks after treatment.
Setting [27] is: Rate 0.2500 kg/ha, preemergence, flooded paddy, rated three to four weeks after treatment.
Where [28] appears, read: Rate 0.0320 kg/ha, preemergence.
The mark [29] stands for this setting: Rate 0.0620 kg/ha, preemergence.
Where [30] appears, read: Rate 0.1250 kg/ha, preemergence.
Where [31] appears, read: Rate 0.2500 kg/ha, preemergence.

For the compound `Cn1c(C(F)(F)F)cc(=O)n(-c2ccc3snc(C(=O)NOS(=O)(=O)O)c3c2)c1=O` [Example 417, 1,2-Benzisothiazole-3-carbohydroxamic acid, 5-[3,6-dihydro-3-methyl-2,6-dioxo-4-(trifluoromethyl)-1(2H)-pyrimidinyl]-, hydrogen sulfate (ester)], the ECHORC in assay [1] (setting [4]) was 0.0; in assay [1] (setting [5]) it was 0.0; in assay [1] (setting [6]), 3.0; in assay [1] (setting [7]) it was 3.0. For the same compound, the CYPIR with Cyperus iria (setting [8]) amounted to 4.0; in the assay with Cyperus iria (setting [9]), 4.0; with Cyperus iria (setting [10]), 5.0; in the assay on Cyperus iria (setting [11]), 6.0. In addition, the CYPSE in assay [2] (setting [10]) was found to be 3.0. Moreover, the MOOVA in assay [3] (0.0320 kg/ha) was 6.0; in assay [3] (0.0620 kg/ha), 6.0; in assay [3] (0.1250 kg/ha), 9.0; in assay [3] (0.2500 kg/ha), 9.0.

Consider `Cc1ccc(OCC(=O)NS(=O)(=O)CCl)c(-c2nsc3ccc(-n4c(=O)cc(C(F)(F)F)n(C)c4=O)cc23)c1` [Example 343], for which the “herbicidal effect rating, ECHORC” value is 3.0 in assay [1] (setting [12]), 6.0 in assay [1] (setting [13]), 7.0 in assay [1] (setting [14]) and 9.0 in assay [1] (setting [15]). The “herbicidal effect rating, CYPIR” value in the assay on Cyperus iria (setting [16]) is on record as 0.0; in the assay on Cyperus iria (setting [17]), 0.0; in the assay with Cyperus iria (setting [18]) it was 0.0; in the assay on Cyperus iria (setting [19]), 6.0. Further, the “herbicidal effect rating, CYPSE” value in assay [2] (setting [16]) came to 0.0; in assay [2] (setting [17]), 3.0; in assay [2] (setting [18]) it was 4.0; in assay [2] (setting [19]) it was 6.0. The “herbicidal effect rating, SAGPY” value in the assay with Sagittaria pygmaea, L. (setting [12]) was 0.0; in the assay with Sagittaria pygmaea, L. (setting [13]), 0.0; in the assay on Sagittaria pygmaea, L. (setting [14]) it was 0.0; in the assay on Sagittaria pygmaea, L. (setting [15]), 3.0.

Take `CC(C)N(C(C)C)S(=O)(=O)NC(=O)C(C)(C)c1nsc2ccc(-n3c(=O)cc(C(F)(F)F)n(C)c3=O)cc12` [Example 511, 1,2-Benzisothiazole-3-acetamide, 5-[3,6-dihydro-3-methyl-2,6-dioxo-4-(trifluoromethyl)-1(2H)-pyrimidinyl]-N-(diisopropylsulfamoyl)-alpha, alpha-dimethyl-]: the ECHORC herbicidal rating in assay [1] (setting [20]) is listed as 0.0; in assay [1] (setting [21]), 2.0; in assay [1] (setting [22]), 5.0; in assay [1] (setting [23]), 7.0. For the same compound, the CYPIR herbicidal rating in the assay with Cyperus iria (0.0320 kg/ha, preemergence) was 0.0; in the assay with Cyperus iria (0.0620 kg/ha, preemergence), 0.0; with Cyperus iria (0.1250 kg/ha, preemergence), 2.0; in the assay on Cyperus iria (0.2500 kg/ha, preemergence), 7.0. In addition, the CYPSE herbicidal rating in assay [2] (0.0320 kg/ha, preemergence) is 0.0; in assay [2] (0.0620 kg/ha, preemergence), 0.0; in assay [2] (0.1250 kg/ha, preemergence), 3.0; in assay [2] (0.2500 kg/ha, preemergence), 3.0. The SAGPY herbicidal rating with Sagittaria pygmaea, L. (setting [20]) was determined as 0.0; with Sagittaria pygmaea, L. (setting [21]), 0.0; with Sagittaria pygmaea, L. (setting [22]), 0.0; in the assay with Sagittaria pygmaea, L. (setting [23]) it was 7.0.

For `Cc1ccc(OC(C)C(=O)[O-])c(-c2nsc3ccc(-n4c(=O)cc(C(F)(F)F)n(C)c4=O)cc23)c1.[Na+]` (racemic) [Example 82, Sodium 2-{{2-{5-[3,6-dihydro-3-methyl-2,6-dioxo-4-(trifluoromethyl)-1(2H)-pyrimidinyl]-1,2-benzisothiazol-3-yl}-p-tolyl}oxy}propionate, DL-], the “herbicidal effect rating, ECHORC” value in assay [1] (0.0313 kg/ha, preemergence, flooded paddy, rated three to four weeks after treatment) was determined as 9.0; in assay [1] (0.0625 kg/ha, preemergence, flooded paddy, rated three to four weeks after treatment), 9.0; in assay [1] (setting [22]), 9.0; in assay [1] (setting [23]), 9.0.

As to `CC(=O)OCCOC(=O)COc1ccc(C)cc1-c1nsc2ccc(-n3c(=O)cc(C(F)(F)F)n(C)c3=O)cc12` [Example 578, Acetic acid, {{2-{5-[3,6-dihydro-3-methyl-2,6-dioxo-4-(trifluoromethyl)-1(2H)-pyrimidinyl]-1,2-benzisothiazol-3-yl}-p-tolyl}oxy}-, 2-hydroxyethyl ester, acetate (ester)], the “herbicidal effect rating, ECHORC” value is listed as 5.0 in assay [1] (setting [24]), 6.0 in assay [1] (setting [25]), 7.0 in assay [1] (setting [26]) and 9.0 in assay [1] (setting [27]). For the same compound, the “herbicidal effect rating, CYPIR” value in the assay with Cyperus iria (setting [28]) came to 4.0; in the assay on Cyperus iria (setting [29]), 5.0; in the assay on Cyperus iria (setting [30]) it was 5.0; in the assay on Cyperus iria (setting [31]), 7.0. For the same compound, the “herbicidal effect rating, CYPSE” value in assay [2] (setting [28]) worked out at 3.0; in assay [2] (setting [29]), 6.0; in assay [2] (setting [30]), 6.0; in assay [2] (setting [31]), 9.0. Moreover, the “herbicidal effect rating, SAGPY” value with Sagittaria pygmaea, L. (setting [24]) is given as 3.0; in the assay on Sagittaria pygmaea, L. (setting [25]) it was 6.0; with Sagittaria pygmaea, L. (setting [26]) it was 6.0; in the assay on Sagittaria pygmaea, L. (setting [27]) it was 9.0.

In the case of `COC(=O)[C@@H](C)Oc1ccc(C)cc1-c1nsc2ccc(-n3c(=O)cc(C(F)(F)F)n(C)c3=O)cc12` [Example 14, Methyl 2-{{2-{5-[3,6-dihydro-3-methyl-2,6-dioxo-4-(trifluoromethyl)-1(2H)-pyrimidinyl]-1,2-benzisothiazol-3-yl}-p-tolyl}oxy}propionate, (R)-], the “herbicidal effect rating, ECHORC” value in assay [1] (in vivo) was 7.5 and 6.5 and 5.0 and 4.0. The “herbicidal effect rating, MOOVA” value in assay [3] (in vivo) is recorded as 9.0. Moreover, in the assay with Sagittaria pygmaea, L. (in vivo), the “herbicidal effect rating, SAGPY” value came out at 0.0.

For the compound `CC(=O)OCCCSC(SCCCOC(C)=O)c1nsc2ccc(-n3c(=O)cc(C(F)(F)F)n(C)c3=O)cc12` [Example 426, 1,2-Benzisothiazole-3-carboxaldehyde, 5-[3,6-dihydro-3-methyl-2,6-dioxo-4-(trifluoromethyl)-1(2H)-pyrimidinyl]-, 3-[bis(3-hydroxypropyl)dithioacetal], diacetate (diester)], the ECHORC was 5.0 in assay [1] (setting [4]), 5.0 in assay [1] (setting [5]), 5.0 in assay [1] (setting [6]) and 9.0 in assay [1] (setting [7]). The CYPIR with Cyperus iria (setting [8]) amounted to 5.0; with Cyperus iria (setting [9]), 7.0; in the assay with Cyperus iria (setting [10]) it was 7.0; in the assay with Cyperus iria (setting [11]), 9.0. For the same compound, the CYPSE came out at 0.0 in assay [2] (setting [8]), 0.0 in assay [2] (setting [9]), 0.0 in assay [2] (setting [10]) and 2.0 in assay [2] (setting [11]). Further, the SAGPY in the assay with Sagittaria pygmaea, L. (setting [4]) came out at 0.0; with Sagittaria pygmaea, L. (setting [5]), 2.0; in the assay on Sagittaria pygmaea, L. (setting [6]), 4.0; in the assay on Sagittaria pygmaea, L. (setting [7]), 4.0.

For `COCC(=O)OCc1nsc2ccc(-n3c(=O)cc(C(F)(F)F)n(C)c3=O)cc12` [Example 495, 2,4(1H,3H)-Pyrimidinedione, 3-[3-(hydroxymethyl)-1,2-benzisothiazol-5-yl]-1-methyl-6-(trifluoromethyl)-, methoxyacetate (ester)], the ECHORC herbicidal rating in assay [1] (setting [20]) is 3.0; in assay [1] (setting [21]), 4.0; in assay [1] (setting [22]) it was 5.0; in assay [1] (setting [23]) it was 7.0. Besides, the CYPIR herbicidal rating in the assay on Cyperus iria (0.0320 kg/ha, preemergence) was determined as 6.0; with Cyperus iria (0.0620 kg/ha, preemergence) it was 6.0; in the assay on Cyperus iria (0.1250 kg/ha, preemergence) it was 7.0; in the assay on Cyperus iria (0.2500 kg/ha, preemergence) it was 9.0. The MOOVA herbicidal rating in assay [3] (0.0320 kg/ha) is on record as 7.0; in assay [3] (0.0620 kg/ha), 7.0; in assay [3] (0.1250 kg/ha), 9.0; in assay [3] (0.2500 kg/ha) it was 9.0. In addition, the SAGPY herbicidal rating came out at 0.0 in the assay on Sagittaria pygmaea, L. (setting [20]); 0.0 with Sagittaria pygmaea, L. (setting [21]); 3.0 in the assay on Sagittaria pygmaea, L. (setting [22]).

The values are drawn from patent EP0908457B1, “3-(1,2-benzisothiazol- and isoxazol-5-Y1)-2,4(1H,3H)-pyrimidinedione or thione and 3-(1,2-benzisothiazol- and isoxazol-5-y1)-4(3H)-pyrimidinone or thione herbicidal agents” (BASF AKTIENGESELLSCHAFT, priority 1997, dated 1999).
